Biological target: T1, HDM2 (Homo sapiens, UniProt Q00987)
T1 construct: Thioredoxin (N); made in house; host or cells: E. coli strain BL21(DE3)Rosetta
Test: FRET assay (HDM2 inhibition; method not described in this part)
Assay type: binding

T1 sequence (Q00987 17-125): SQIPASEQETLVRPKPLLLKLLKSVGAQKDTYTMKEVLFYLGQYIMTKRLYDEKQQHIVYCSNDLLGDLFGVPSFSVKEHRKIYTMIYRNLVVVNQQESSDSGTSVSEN

SMILES	IC50 (Table 1) [nM]	IC50 (Table 2) [nM]	also measured
C[C@@H](Nc1nc(C(=O)O)nc2nc(-c3ccc(C(C)(C)C)cc3)n(Cc3ccc(C(F)(F)F)cc3)c12)C1CCC1 [Example 1.114, 8-(4-tert-butylphenyl)-6-{[(1R)-1-cyclobutylethyl]amino}-7-[4-(trifluoromethyl)benzyl]-7H-purine-2-carboxylic acid]	393		
C[C@@H](Nc1nc(C(=O)O)nc2nc(-c3cccc(OC(F)F)c3)n(Cc3ccc(C(F)(F)F)cc3)c12)C1CCC1 [Example 2.67, 6-{[(1R)-1-cyclobutylethyl]amino}-8-[3-(difluoromethoxy)phenyl]-7-[4-(trifluoromethyl)benzyl]-7H-purine-2-carboxylic acid]		41.7	
CCCc1ccnc(-c2nc3nc(C(=O)O)nc(N[C@H](C)C4CCC4)c3n2Cc2ccc(C(F)(F)F)cc2)c1 [Example 1.68, 6-{[(1R)-1-cyclobutylethyl]amino}-8-(4-propylpyridin-2-yl)-7-[4-(trifluoromethyl)benzyl]-7H-purine-2-carboxylic acid]	5.62		
C[C@@H](Nc1nc(C(=O)O)nc2nc(-c3ccc(C4CCCCC4)cc3)n(Cc3ccc(C(F)(F)F)cc3)c12)C1CCC1 [Example 1.110, 6-{[(1R)-1-cyclobutylethyl]amino}-8-(4-cyclohexylphenyl)-7-[4-(trifluoromethyl)benzyl]-7H-purine-2-carboxylic acid]	3700		
C[C@@H](Nc1nc(C(=O)O)nc2nc(-c3cc(OC4CCCCC4)ccn3)n(Cc3ccc(C(F)(F)F)cc3)c12)C1CCC1 [Example 1.58, 6-{[(1R)-1-cyclobutylethyl]amino}-8-[4-(cyclohexyloxy)pyridin-2-yl]-7-[4-(trifluoromethyl)benzyl]-7H-purine-2-carboxylic acid]	16.9		
Cc1cccc(-c2nc3nc(C(=O)O)nc(N[C@H](C)C4CCC4)c3n2Cc2ccc(C3CC3)cc2)c1 [Example 5.10, 6-{[(1R)-1-cyclobutylethyl]amino}-7-(4-cyclopropylbenzyl)-8-(3-methylphenyl)-7H-purine-2-carboxylic acid]			IC50 (Table 5): 270 nM
COc1ccc(-c2nc3nc(C(=O)O)nc(N[C@H](C)C4CCC4)c3n2Cc2ccc(C(F)(F)F)cc2)cc1F [Example 1.104, 6-{[(1R)-1-cyclobutylethyl]amino}-8-(3-fluoro-4-methoxyphenyl)-7-[4-(trifluoromethyl)benzyl]-7H-purine-2-carboxylic acid]	17.4		
C[C@@H](Nc1nc(C(=O)O)nc2nc(-c3ccc4ccccc4c3)n(Cc3ccc(C(F)(F)F)cc3)c12)C1CC1 [Example 2.60, 6-{[(1R)-1-cyclopropylethyl]amino}-8-naphthalen-2-yl-7-[4-(trifluoromethyl)benzyl]-7H-purine-2-carboxylic acid]		306	
C[C@@H](Nc1nc(C(=O)O)nc2nc(-c3cc(CCC4CC4)ccn3)n(Cc3ccc(C(F)(F)F)cc3)c12)C1CCC1 [Example 1.89, 6-{[(1R)-1-cyclobutylethyl]amino}-8-[4-(2-cyclopropylethyl)pyridin-2-yl]-7-[4-(trifluoromethyl)benzyl]-7H-purine-2-carboxylic acid]	8.67		
Cc1cnc(-c2nc3nc(C(=O)O)nc(N[C@H](C)C4CCC4)c3n2Cc2ccc(C(F)(F)F)c(F)c2)cc1C(C)C [Example 1.92, 6-{[(1R)-1-cyclobutylethyl]amino}-7-[3-fluoro-4-(trifluoromethyl)benzyl]-8-[5-methyl-4-(1-methylethyl)pyridin-2-yl]-7H-purine-2-carboxylic acid]	15.9		
Cc1ccc(C)c(-c2nc3nc(C(=O)O)nc(N[C@H](C)C4CC4)c3n2Cc2ccc(Cl)cc2)c1 [Example 2.12, 7-(4-chlorobenzyl)-6-{[(1R)-1-cyclopropylethyl]amino}-8-(2,5-dimethylphenyl)-7H-purine-2-carboxylic acid]		199	
C[C@@H](Nc1nc(C(=O)O)nc2nc(-c3cccc(F)c3)n(Cc3ccc(C(F)(F)F)cc3)c12)C1CC1 [Example 2.56, 6-{[(1R)-1-cyclopropylethyl]amino}-8-(3-fluorophenyl)-7-[4-(trifluoromethyl)benzyl]-7H-purine-2-carboxylic acid]		261	
COc1cc(-c2nc3nc(C(=O)O)nc(N[C@H](C)C4CC4)c3n2Cc2ccc(C(F)(F)F)cc2)ccn1 [Example 2.71, 6-{[(1R)-1-cyclopropylethyl]amino}-8-(2-methoxypyridin-4-yl)-7-[4-(trifluoromethyl)benzyl]-7H-purine-2-carboxylic acid]		589	
COc1ccc(C)cc1-c1nc2nc(C(=O)O)nc(N[C@H](C)C3CCC3)c2n1Cc1ccc(C(F)(F)F)cc1 [Example 1.119, 6-{[(1R)-1-cyclobutylethyl]amino}-8-(2-methoxy-5-methylphenyl)-7-[4-(trifluoromethyl)benzyl]-7H-purine-2-carboxylic acid]	9.97		
Cc1cc(-c2nc3nc(C(=O)O)nc(N[C@H](C)C4CCC4)c3n2Cc2ccc(C(F)(F)F)cc2)n(C)n1 [Example 1.94, 6-{[(1R)-1-cyclobutylethyl]amino}-8-(1,3-dimethyl-1H-pyrazol-5-yl)-7-[4-(trifluoromethyl)benzyl]-7H-purine-2-carboxylic acid]	173		
C[C@@H](Nc1nc(C(=O)O)nc2nc(-c3cccc(C(N)=O)c3)n(Cc3ccc(C(F)(F)F)cc3)c12)C1CCC1 [Example 1.37, 8-(3-carbamoylphenyl)-6-{[(1R)-1-cyclobutylethyl]amino}-7-[4-(trifluoromethyl)benzyl]-7H-purine-2-carboxylic acid]	49.4		
COCCOc1ccc(C)cc1-c1nc2nc(C(=O)O)nc(N[C@H](C)C3CC3)c2n1Cc1ccc(Cl)cc1 [Example 4.9, (R)-7-(4-chlorobenzyl)-6-((1-cyclopropylethyl)amino)-8-(2-(2-methoxyethoxy)-5-methylphenyl)-7H-purine-2-carboxylic acid]			IC50 (Table 4): 27.3 nM
COc1ccc(-c2nc3nc(C(=O)O)nc(N[C@H](C)C4CCC4)c3n2Cc2ccc(C(F)(F)F)cc2)nc1 [Example 1.20, 6-{[(1R)-1-cyclobutylethyl]amino}-8-(5-methoxypyridin-2-yl)-7-[4-(trifluoromethyl)benzyl]-7H-purine-2-carboxylic acid]	24.1		
CC(C)c1csc(-c2nc3nc(C(=O)O)nc(N[C@H](C)C4CCC4)c3n2Cc2ccc(C(F)(F)F)cc2)n1 [Example 3.6, 6-{[(1R)-1-cyclobutylethyl]amino}-8-[4-(1-methylethyl)-1,3-thiazol-2-yl]-7-[4-(trifluoromethyl)benzyl] -7H-purine-2-carboxylic acid]			IC50 (Table 3): 312 nM
C[C@@H](Nc1nc(C(=O)O)nc2nc(-c3cccc4c3CNC4)n(Cc3ccc(C(F)(F)F)cc3)c12)C1CCC1 [Example 1.61, 6-{[(1R)-1-cyclobutylethyl]amino}-8-(2,3-dihydro-1H-isoindol-4-yl)-7-[4-(trifluoromethyl)benzyl]-7H-purine-2-carboxylic acid]	51.4		
CCOc1ccc(-c2nc3nc(C(=O)O)nc(N[C@H](C)C4CC4)c3n2Cc2ccc(C(F)(F)F)cc2)cn1 [Example 2.72, 6-{[(1R)-1-cyclopropylethyl]amino}-8-(6-ethoxypyridin-3-yl)-7-[4-(trifluoromethyl)benzyl]-7H-purine-2-carboxylic acid]		613	
Cc1cccc(-c2nc3nc(C(=O)O)nc(N[C@@H](C)C4CC4)c3n2C(C)c2ccc(Cl)cc2)c1 (stereo partly drawn) [Example 5.3, 7-(1-(4-chlorophenyl)ethyl)-6-((S)-1-cyclopropylethylamino)-8-(3-methylphenyl)-7H-purine-2-carboxylic acid]			IC50 (Table 5): 601 nM
C[C@@H](Nc1nc(C(=O)O)nc2nc(-c3cc(-c4cccs4)ccn3)n(Cc3ccc(C(F)(F)F)cc3)c12)C1CCC1 [Example 1.57, 6-{[(1R)-1-cyclobutylethyl]amino}-8-(4-thiophen-2-ylpyridin-2-yl)-7-[4-(trifluoromethyl)benzyl]-7H-purine-2-carboxylic acid]	5.95		
Cc1ccccc1-c1nc2nc(C(=O)O)nc(N[C@H](C)C3CC3)c2n1Cc1ccc(C(F)(F)F)cc1 [Example 2.30, 6-{[(1R)-1-cyclopropylethyl]amino}-8-(2-methylphenyl)-7-[4-(trifluoromethyl)benzyl]-7H-purine-2-carboxylic acid]		140	
C[C@@H](Nc1nc(C(=O)O)nc2nc(-c3cc(Cl)ccc3Cl)n(Cc3ccc(C(F)(F)F)cc3)c12)C1CCC1 [Example 2.63, 6-{[(1R)-1-cyclobutylethyl]amino}-8-(2,5-dichlorophenyl)-7-[4-(trifluoromethyl)benzyl]-7H-purine-2-carboxylic acid]		10.9	
Cc1ccc(OCCCN2CCOCC2)c(-c2nc3nc(C(=O)O)nc(N[C@H](C)C4CC4)c3n2Cc2ccc(Cl)cc2)c1 [Example 4.14, (R)-7-(4-chlorobenzyl)-6-((1-cyclopropylethyl)amino)-8-(5-methyl-2-(3-morpholinopropoxy)phenyl)-7H-purine-2-carboxylic acid]			IC50 (Table 4): 212 nM
C[C@@H](Nc1nc(C(=O)O)nc2nc(-c3ccc4c(c3)OCCN4C)n(Cc3ccc(C(F)(F)F)cc3)c12)C1CCC1 [Example 1.125, 6-{[(1R)-1-cyclobutylethyl]amino}-8-(4-methyl-3,4-dihydro-2H-1,4-benzoxazin-7-yl)-7-[4-(trifluoromethyl)benzyl]-7H-purine-2-carboxylic acid]	116		
Cc1ccc(Cn2c(-c3cccc(C)c3)nc3nc(C(=O)O)nc(N[C@H](C)C4CC4)c32)cc1 [Example 5.21, 6-{[(1R)-1-cyclopropylethyl]amino}-7-(4-methylbenzyl)-8-(3-methylphenyl)-7H-purine-2-carboxylic acid]			IC50 (Table 5): 1200 nM
C[C@@H](Nc1nc(C(=O)O)nc2nc(-c3ccc(F)c(Cl)c3)n(Cc3ccc(C(F)(F)F)cc3)c12)C1CCC1 [Example 2.61, 8-(3-chloro-4-fluorophenyl)-6-{ [(1R)-1-cyclobutylethyl]amino}-7-[4-(trifluoromethyl)benzyl]-7H-purine-2-carboxylic acid]		22.7	
Cc1cccc(-c2nc3nc(C(=O)O)nc(N[C@H](C)C4CC4)c3n2Cc2ccccc2C(F)(F)F)c1 [Example 5.16, 6-{[(1R)-1-cyclopropylethyl]amino}-8-(3-methylphenyl)-7-[2-(trifluoromethyl)benzyl]-7H-purine-2-carboxylic acid]			IC50 (Table 5): 8330 nM

Source: patent EP2951180B1, “2,6,7,8 SUBSTITUTED PURINES AS HDM2 INHIBITORS” (Merck Sharp & Dohme Corp., priority 2013, dated 2014)
